# Assays:
# Assay type in all cases: in vivo
# [1] = system: Abutilon theophrasti (ABUTH); experiment: B1 Pre-emergence herbicidal activity; conditions: pre-emergence application, Rate 1000 g/ha, evaluated after 13 days, Test 1b
# Experimental: Seeds of a variety of test species were sown in standard soil in pots: Triticum aestivium (TRZAW), Avena fatua (AVEFA), Alopecurus myosuroides (ALOMY), Echinochloa crus-galli (ECHCG), Lolium perenne (LOLPE), Zea Mays (ZEAMX), Abutilon theophrasti (ABUTH), Amaranthus retroflexus (AMARE) and Setaria fabenr (SETFA). After cultivation for one day (pre-emergence) under controlled conditions in a glasshouse (at 24/16° C., day/night; 14 hours light; 65% humidity), the plants were sprayed with an aqueous spray solution derived from the formulation of the technical active ingredient in acetone I water (50:50) solution containing 0.5% Tween 20 (polyoxyethelyene sorbitan monolaurate, CAS RN 9005-64-5). The test plants were then grown in a glasshouse under controlled conditions (at 24/16° C., day/night; 14 hours light; 65% humidity) and watered twice daily. After 13 days, the test was evaluated (5=total damage to plant; 0=no damage to plant).
# [2] = system: Echinochloa crus-galli (ECHCG); experiment: B1 Pre-emergence herbicidal activity; conditions: pre-emergence application, evaluated after 13 days; for ECHCG damage score (0-5): Rate 1000 g/ha, Test 1b
# Procedure, shortened: (§1)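 Test species received a pre-emergence application one day post-sowing in an acetone/water solution with 0.5% Tween 20. Phytotoxicity was assessed 13 days later on a scale where 0 means no damage and 5 total plant death.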
# [3] = system: Lolium perenne (LOLPE); experiment: B1 Pre-emergence herbicidal activity; conditions: pre-emergence application, evaluated after 13 days; for LOLPE damage score (0-5): Rate 1000 g/ha, Test 1b
# Procedure, shortened: as §1
# [4] = system: Setaria fabenr (SETFA); experiment: B1 Pre-emergence herbicidal activity; parameters: key to Pre-emergence herbicidal activity, SETFA (damage score 0-5): 5=total damage to plant; 0=no damage to plant; conditions: pre-emergence application, evaluated after 13 days; for SETFA damage score (0-5): Rate 1000 g/ha, Test 1b
# Procedure, shortened: as §1
# [5] = system: Abutilon theophrasti (ABUTH); experiment: B2 Post-emergence herbicidal activity; conditions: post-emergence application, Rate 1000 g/ha, evaluated after 13 days, Test 2b
# Procedure, shortened: (§2)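 Scores run from 0 for undamaged to 5 for fully killed plants, assessed 13 days post-spray. Application was post-emergence at 8 days of growth, using an acetone/water (50:50), 0.5% Tween 20 spray solution; growth at 24 °C day, 16 °C night, 65% humidity.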
# [6] = system: Amaranthus retroflexus (AMARE); experiment: B2 Post-emergence herbicidal activity; conditions: post-emergence application, Rate 1000 g/ha, evaluated after 13 days, Test 2b
# Procedure, shortened: as §2
# [7] = system: Setaria fabenri (SETFA); experiment: B2 Post-emergence herbicidal activity; parameters: key: 5=total damage to plant; 0=no damage to plant; conditions: post-emergence application, evaluated after 13 days; for SETFA damage score (0-5): Rate 1000 g/ha, Test 2b
# Procedure, shortened: as §2
# [8] = system: Zea Mays (ZEAMX); experiment: B2 Post-emergence herbicidal activity; parameters: key: 5=total damage to plant; 0=no damage to plant; conditions: post-emergence application, Rate 1000 g/ha, evaluated after 13 days, Test 2b
# Procedure, shortened: as §2
# [9] = system: Echinochloa crus-galli (ECHCG); experiment: B2 Post-emergence herbicidal activity; conditions: post-emergence application, evaluated after 13 days; for ECHCG damage score (0-5): Rate 1000 g/ha, Test 2b
# Procedure, shortened: as §2
# [10] = system: Amaranthus retroflexus (AMARE); experiment: B1 Pre-emergence herbicidal activity; parameters: key: 5=total damage to plant; 0=no damage to plant; conditions: pre-emergence application, Rate 1000 g/ha, evaluated after 13 days, Test 1b
# Procedure, shortened: as §1
# [11] = system: Zea Mays (ZEAMX); experiment: B1 Pre-emergence herbicidal activity; parameters: key: 5=total damage to plant; 0=no damage to plant; conditions: pre-emergence application, Rate 1000 g/ha, evaluated after 13 days, Test 1b
# Procedure, shortened: as §1
# [12] = system: Lolium perenne (LOLPE); experiment: B2 Post-emergence herbicidal activity; conditions: post-emergence application, evaluated after 13 days; for LOLPE damage score (0-5): Rate 1000 g/ha, Test 2b
# Procedure, shortened: as §2
# [13] = system: Avena fatua (AVEFA); experiment: B2 Post-emergence herbicidal activity; conditions: post-emergence application, rate 250 g/ha, evaluated after 13 days
# Procedure, shortened: as §2
# [14] = system: Alopecurus myosuroides (ALOMY); experiment: B2 Post-emergence herbicidal activity; parameters: key: 5=total damage to plant; 0=no damage to plant; conditions: post-emergence application, rate 250 g/ha, evaluated after 13 days
# Procedure, shortened: as §2
# [15] = system: Triticum aestivium (TRZAW); experiment: B2 Post-emergence herbicidal activity; parameters: key: 5=total damage to plant; 0=no damage to plant; conditions: post-emergence application, rate 250 g/ha, evaluated after 13 days
# Procedure, shortened: as §2
# [16] = system: Alopecurus myosuroides (ALOMY); experiment: B1 Pre-emergence herbicidal activity; parameters: key: 5=total damage to plant; 0=no damage to plant; conditions: pre-emergence application, rate 250 g/ha, evaluated after 13 days
# Procedure, shortened: as §1
# [17] = system: Avena fatua (AVEFA); experiment: B1 Pre-emergence herbicidal activity; parameters: key: 5=total damage to plant; 0=no damage to plant; conditions: pre-emergence application, rate 250 g/ha, evaluated after 13 days
# Procedure, shortened: as §1
# [18] = system: Triticum aestivium (TRZAW); experiment: B1 Pre-emergence herbicidal activity; parameters: key: 5=total damage to plant; 0=no damage to plant; conditions: pre-emergence application, rate 250 g/ha, evaluated after 13 days
# Procedure, shortened: as §1
SMILES,ABUTH damage score (0-5) [1],ECHCG damage score (0-5) [2],LOLPE damage score (0-5) [3],SETFA damage score (0-5) [4],ABUTH damage score (0-5) [5],AMARE damage score (0-5) [6],SETFA damage score (0-5) [7],ZEAMX damage score (0-5) [8],ECHCG damage score (0-5) [9],AMARE damage score (0-5) [10],ZEAMX damage score (0-5) [11],LOLPE damage score (0-5) [12],further results
"CC(=O)Nc1ccc(-c2cncc(F)c2)nc1C(F)(F)F [Compound C9, N-[6-(5-fluoro-3-pyridyl)-2-(trifluoromethyl)-3-pyridyl]acetamide]",1,3,2,4,2,2,5,5,4,2,5,3,
"CC(C)C(=O)Nc1ccc(-c2cncc(F)c2)nc1C(F)(F)F [Compound C10, N-[6-(5-fluoro-3-pyridyl)-2-(trifluoromethyl)-3-pyridyl]-2-methyl-propanamide]",1,4,2,4,1,1,4,5,4,0,5,3,
"CCC(=O)N(C(C)=O)c1ccc(-c2cncc(F)c2)nc1C(F)(F)F [Compound C121, N-acetyl-N-[6-(5-fluoro-3-pyridyl)-2-(trifluoromethyl)-3-pyridyl]propanamide]",,,,,,,,,,,,,"Pre-emergence herbicidal activity, ECHCG (damage score 0-5) ([2]; rate 250 g/ha): 3; Pre-emergence herbicidal activity, LOLPE (damage score 0-5) ([3]; rate 250 g/ha): 1; Pre-emergence herbicidal activity, SETFA (damage score 0-5) ([4]; rate 250 g/ha): 5; Post-emergence herbicidal activity, AVEFA (damage score 0-5) [13]: 4; Post-emergence herbicidal activity, ALOMY (damage score 0-5) [14]: 1; Post-emergence herbicidal activity, SETFA (damage score 0-5) ([7]; rate 250 g/ha): 5; Post-emergence herbicidal activity, TRAZW (damage score 0-5) [15]: 1; Post-emergence herbicidal activity, ECHCG (damage score 0-5) ([9]; rate 250 g/ha): 4; Pre-emergence herbicidal activity, ALOMY (damage score 0-5) [16]: 0; Pre-emergence herbicidal activity, AVEFA (damage score 0-5) [17]: 2; Pre-emergence herbicidal activity, TRAZW (damage score 0-5) [18]: 0; Post-emergence herbicidal activity, LOLPE (damage score 0-5) ([12]; rate 250 g/ha): 3"
